“Also recorded” adds a separate entry of the source. Read-outs that look alike come from different tables or passages of the source. Starred links: 1 amine or outer side, 2 acyl side, 3 side chain; linkers in the order of their positions; H or OH if unused. Non-standard residues stand in square brackets, D forms with d. Residues, ends and D or L forms follow the SMILES beside them. No end group written: not given here. *: point of attachment. Glyψ(1,4-Tz)Leu = CC(C)C[C@@H](C(=O)[*:2])n1cc(CN[*:1])nn1; γGlu = O=C(O)[C@H](CCC(=O)[*:2])N[*:1]; Arg(Me) = CNC(=N)NCCC[C@H](N)C(=O)O; Palmitoyl = CCCCCCCCCCCCCCCC(=O)*
Legend:
hKiSS1R = biological target: T1, hKiSS1R (Homo sapiens, UniProt Q969F8); test: intracellular Ca2+ mobilization assay (Fluo4 NW) in KiSS1R-transfected HEK293A cells; type: cell-based; settings: for EC50: SEM
T1 construct: expressed in transfected cells; host or cells: HEK293A
T1 sequence (Q969F8 whole entry): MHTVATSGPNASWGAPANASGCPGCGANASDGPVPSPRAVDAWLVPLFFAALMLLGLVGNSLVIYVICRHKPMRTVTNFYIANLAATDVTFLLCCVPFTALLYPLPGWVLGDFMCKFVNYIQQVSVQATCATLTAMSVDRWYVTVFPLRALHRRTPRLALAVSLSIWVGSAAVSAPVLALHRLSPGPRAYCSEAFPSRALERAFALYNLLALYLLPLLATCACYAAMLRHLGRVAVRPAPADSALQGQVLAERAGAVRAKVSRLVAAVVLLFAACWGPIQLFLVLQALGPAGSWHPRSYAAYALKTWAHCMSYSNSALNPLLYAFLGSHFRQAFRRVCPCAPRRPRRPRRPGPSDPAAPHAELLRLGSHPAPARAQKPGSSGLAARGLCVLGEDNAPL
Description: Figure 1 Chemical structures and half maximal effective concentration (mean ± SEM, N = 3) of kisspeptin 10 and analogs C2–C7 as measured in a calcium mobilization assay in KiSS1R-transfected HEK293 cell line. Ac: acetyl; Palm-γ-Glu: N-palmitoylated-γ-glutamate, Tz: Triazole; Me: Methyl. TEXT PRINTED IN THE PICTURE: Kp10 1: EC50 (nM): 2.6 ± 2.2 | 2: EC50 (nM): 0.07 ± 0.06 | 3: EC50 (nM): 1.6 ± 0.2 | 4: EC50 (nM): 216 ± 110 | 5: EC50 (nM): 0.22 ± 0.33 | 6: EC50 (nM): 0.33 ± 0.24 | 7: EC50 (nM): 0.04 ± 0.02
Receptor activation was monitored using Fluo4 NW Ca^2+ assay kit in HEK293A cells transfected with the hKiSS1R as previously described[11] (kind gift of professor N. de Roux, INSERM U690, Hôpital Robert Debré, Paris, France). Considering the type of analysis performed, assessment of second messenger activation of a heterologous expressed receptor, the use of potentially misidentified cells has no impact on the result. Basal fluorescence was measured with a plate reader (PolarStar Optima, BMG Labtech). Immediately after the basal reading, the test compound was added at different concentrations and the intracellular Ca^2+ dynamic monitored. To generate concentration activity curves, the mean basal value was subtracted from the value obtained after stimulation. The area under the curve (AUC) was calculated and plotted against concentrations. Concentration activity data points were fitted to sigmoidal curves generated by GraphPad Prism 5 and EC50 automatically calculated.

KiSS1R KO mice = test: circulating LH concentration in KiSS1R KO mice; type: in vivo, mouse
Description: Adult male and female KiSS1R KO mice[41] were primed by 5 ip injections of 40 ng/100 μL GnRH at 30 minute intervals and an equivalent volume of saline was injected to wild type mice. This protocol allows the pituitary gland to become more responsive to GnRH in this mouse line as previously reported. Blood samples (4 μL) were collected from the tail tip as previously described, before the first, third and fifth injection, and 30, 105 and 125 minutes after the last injection. C6 was injected immediately after the last blood sampling (0.3 nmoles/200 μL, a dose established in a preliminary experiment) and blood samples taken 20, 40, 60, 90, 120, 180, 300 minutes following injection. After 300 minutes a further injection of GnRH (40 ng/100 μL) was performed in KiSS1R KO mice, and a final blood sample was taken 30 minutes later to confirm the functionality of the HPG axis. Whole blood samples were collected in 150 μL of 0.1 M PBS-0.05% Tween20, mixed and moved to dry ice at the end of each sampling round. Experiments were conducted during the first 8 hours of the light phase to avoid any endogenous LH surges associated with the preovulatory stage of the female reproductive cycle. Data are expressed as means ± SEM (N = 4–7 per group, for details on group size see figure legends).
A sandwich ELISA, adapted from Steyn et al.[42], was used to measure LH concentration in mice. Monoclonal bovine LHβ 518 B7 (1:1,000 dilution) was used as the capture antibody (obtained from Lillian Sibley at University of California Davis), and the standard was NIDDK mouse LH reference preparation from AF Parlow (AFP5306A mouse RIA kit). The assay sensitivity was 0.2 ng/mL and the mean intra-assay coefficient of variation averaged 11%.

ewes [1] = test: LH plasma concentration in ewes during artificial luteal phase (under flugestone acetate), intramuscular injection; type: in vivo, ewe (Ile de France); settings: 15 nmol/ewe im, breeding season, ewes under FA treatment, N = 6
Description: (§1) To induce an artificial luteal phase intact cyclic (October–December) or anestrus acyclic (March–June) ewes were implanted with vaginal sponge containing FA (Chronogest, Intervet), a progesterone analog, for 14 days. To compare the activity of Kp, C3, C5 and C6 injection of test drug was performed during the treatment with FA. For the experiments of synchronization and induction of ovulation 24 hours before drug injection the vaginal sponge was removed and the same day a catheter (ID 1.0, L 52 mm, Intraflon 2, Vygon, France) was inserted in the jugular vein. On the day of experiment the test compound was injected intramuscularly and blood samples (2 mL) were taken at various time intervals post-injection: every10 minutes for the first hour, every 20 minutes from 2 to 6 hours, every 60 minutes from 6 to 10 hours and every 120 minutes from 10 hours to the end of the experiment). Data are expressed as means ± SEM (N = 6–12 per group, for details on group size see figure legends).
Plasma LH concentrations in ewe were measured using previously described radioimmunoassays. The assay standard was 1055-CY-LH (equivalent to 2.2 NIH-LH-S1). Intra-assay coefficient of variation averaged 9% and assay sensitivity was 0.2 ± 0.05 ng/mL. Plasma FSH levels were measured using the reagents supplied by Tucker Endocrine Research Institute (Atlanta, Georgia, USA). […]

ewes [2] = test: LH surge / ovulation induction in ewes injected 24 h after flugestone acetate withdrawal (LH, FSH, progesterone); type: in vivo, ewe (Ile de France); settings: 15 nmol/ewe im
Description: as §1
Plasma LH concentrations in ewe were measured using previously described radioimmunoassays. […] Plasma FSH levels were measured using the reagents supplied by Tucker Endocrine Research Institute (Atlanta, Georgia, USA). […]
Progesterone was measured by an ELISA assay on 96-well plate (Immuno Nunc Maxisorp C96) coated with goat anti-mouse IgG (Uptima UP462140, Interchim) overnight at 4 °C. […]

[3] = KiSS1R-transfected HEK293 cell line, Fluo4 NW, AUC fitted, mean ± SEM, N = 3, read-out: EC50, calcium mobilization
[4] = 40 ng GnRH 300 min after C6, sample 30 min later
[5] = 5 ip injections of 40 ng GnRH at 30 min intervals, 15 minutes post injection

Work on CNC(=N)NCCC[C@H](NC(=O)[C@H](CC(C)C)n1cc(CNC(=O)[C@H](Cc2ccccc2)NC(=O)[C@H](CO)NC(=O)[C@H](CC(N)=O)NC(=O)[C@H](Cc2c[nH]c3ccccc23)NC(=O)[C@H](CC(N)=O)NC(=O)[C@H](Cc2ccc(O)cc2)NC(C)=O)nn1)C(=O)N[C@@H](Cc1ccc(O)cc1)C(N)=O [C7] (Ac-YNWNSF[Glyψ(1,4-Tz)Leu][Arg(Me)]Y-NH2) yielded an EC50 (hKiSS1R; [3]) of 0.04 ± 0.02 nM.
For CCCCCCCCCCCCCCCC(=O)N[C@@H](CCC(=O)N[C@@H](Cc1ccc(O)cc1)C(=O)N[C@@H](CC(N)=O)C(=O)N[C@@H](Cc1c[nH]c2ccccc12)C(=O)N[C@@H](CC(N)=O)C(=O)N[C@@H](CO)C(=O)N[C@@H](Cc1ccccc1)C(=O)NCc1cn([C@@H](CC(C)C)C(=O)N[C@@H](CCCNC(=N)NC)C(=O)N[C@@H](Cc2ccc(O)cc2)C(N)=O)nn1)C(=O)O [C6] ({Palmitoyl-γGlu}-YNWNSF[Glyψ(1,4-Tz)Leu][Arg(Me)]Y-NH2), the “enhancement in EC50 compared to C3” value (hKiSS1R; C6 versus first generation analog C3) was ~ 5 fold and the EC50 (hKiSS1R) was 0.33 ± 0.24 nM.
With “gonadotropin releasing hormone (QHWSYGLRPG; ends and bridges not checked; UniProt P13562 22-31, looked up) [GnRH, hormone injected ip to prime KiSS1R KO mice and check pituitary function]” the “LH after further GnRH injection at end of experiment, KO females” value (KiSS1R KO mice; [4]) was 4.8 ± 1.9 ng/mL, the “LH after further GnRH injection at end of experiment, KO males” value (KiSS1R KO mice; [4]) was 3.2 ± 0.4 ng/mL and the “LH after GnRH priming, KO females” value (KiSS1R KO mice; [5]) was 2.3 ± 0.8 ng/mL. For the same molecule, the “LH after GnRH priming, KO males” value (KiSS1R KO mice; [5]) was 2.7 ± 0.6 ng/mL and the “fold increase of circulating LH after GnRH priming” value (KiSS1R KO mice; KiSS1R KO mice, 15 minutes post injection) was 3–6 fold.
Work on CCCCCCCCCCCCCCCC(=O)N[C@@H](CCC(=O)N[C@@H](Cc1ccc(O)cc1)C(=O)N[C@@H](CC(N)=O)C(=O)N[C@@H](Cc1c[nH]c2ccccc12)C(=O)N[C@@H](CC(N)=O)C(=O)N[C@@H](CO)C(=O)N[C@@H](Cc1ccccc1)C(=O)NCc1cn([C@@H](CC(C)C)C(=O)N[C@@H](CCCNC(=N)N)C(=O)N[C@@H](Cc2ccc(O)cc2)C(N)=O)nn1)C(=O)O [C5] ({Palmitoyl-γGlu}-YNWNSF[Glyψ(1,4-Tz)Leu]RY-NH2) yielded an EC50 (hKiSS1R; [3]) of 0.22 ± 0.33 nM.
YNWNSFGLRY-NH2 [Kp10] was tested, and the EC50 (hKiSS1R; [3]) was 2.6 ± 2.2 nM, the “effect on LH plasma concentration” value (ewes [1]) was “negligible effect; also recorded: no effect on LH basal level” and the “effect on LH plasma concentration, non-breeding season” value (ewes [2]; 24 h after ending FA treatment, N = 6) was “no increase”. For the same molecule, the progesterone level (ewes [2]; non-breeding season, 1 ng mL^−1 threshold = ovulation hallmark) was < 1 ng/mL.
